Converted amounts (≈) assume the structure as drawn.
Tests used:
[1] = tested on: Pseudomonas aeruginosa 99; assay: Minimal inhibitory concentration, agar dilution streak method; format: cell-based; settings: nutrient agar, 37° C, 18 hours, read-out: minimum inhibitory concentrations
Procedure: [α]D^22 + 38°, (c 0.85, water).
(§1) *Agar Agar dilution streak method (nutrient agar, 37° C, 18 hours)
(§2) *Agar dilution streak method (nutrient agar, 37° C, 18 hours).

[2] = tested on: Escherichia coli K-12 JR 66/W 677; assay: as above; format: cell-based; settings: Escherichia coli, 18 h, read-out: minimum inhibitory concentrations
Procedure: as §1, §2

[3] = tested on: Escherichia coli K-12 LA 290 R 55; assay: as above; format: cell-based; settings: 18 h, read-out: minimum inhibitory concentrations
Procedure: as §1, §2

[4] = tested on: Escherichia coli K-12 LA 290 R 56; assay: as above; format: cell-based; settings: 18 h, read-out: minimum inhibitory concentrations
Procedure: as §1, §2

[5] = tested on: Escherichia coli K-12 LA 290 R 64; assay: as above; format: cell-based; settings: nutrient agar, 37° C, 18 hours, read-out: minimum inhibitory concentrations
Procedure: as §1, §2

[6] = tested on: Escherichia coli K-12 ML 1410 R 81; assay: as above; format: cell-based; settings: 18 h, read-out: minimum inhibitory concentrations
Procedure: as §1, §2

[7] = tested on: Escherichia coli K-12 ML 1410; assay: as above; format: cell-based; settings: K12ML1410, nutrient agar, 37° C, 18 hours, read-out: minimum inhibitory concentrations
Procedure: as §1, §2

[8] = tested on: Escherichia coli K-12 ML 1629; assay: as above; format: cell-based; settings: K12ML1629, nutrient agar, 37° C, 18 hours, drug-resistant strain, read-out: minimum inhibitory concentrations
Procedure: as §1, §2

[9] = tested on: Escherichia coli K-12 ML 1630; assay: as above; format: cell-based; settings: K12ML1630, nutrient agar, 37° C, 18 hours, read-out: minimum inhibitory concentrations
Procedure: as §1, §2

[10] = tested on: Escherichia coli K-12 W 677; assay: as above; format: cell-based; settings: K12W677, nutrient agar, 37° C, 18 hours, read-out: minimum inhibitory concentrations
Procedure: as §1, §2

Escherichia coli K-12 = assay: as above; format: cell-based; settings: K12, nutrient agar, 37° C, 18 hours, read-out: minimum inhibitory concentrations
Procedure: as §1, §2

[11] = tested on: Pseudomonas aeruginosa A 3; assay: as above; format: cell-based; settings: A3, nutrient agar, 37° C, 18 hours, read-out: minimum inhibitory concentrations
Procedure: as §1, §2

[12] = tested on: Pseudomonas aeruginosa No.12; assay: as above; format: cell-based; settings: nutrient agar, 37° C, 18 hours, read-out: minimum inhibitory concentrations
Procedure: as §1, §2

[13] = tested on: Pseudomonas aeruginosa TI-13; assay: as above; format: cell-based; settings: TI13, nutrient agar, 37° C, 18 hours, read-out: minimum inhibitory concentrations
Procedure: as §1, §2

[14] = tested on: Staphylococcus aureus FDA 209P; assay: as above; format: cell-based; settings: FDA209P, nutrient agar, 37° C, 18 hours, read-out: minimum inhibitory concentrations
Procedure: as §1, §2

[15] = tested on: kanamycin-resistant strains; settings: strains producing 3'-hydroxyl phosphorylating enzyme; cited from earlier work
nucleotidyl-transferase = settings: adenylylation of 2"-hydroxyl group with ATP; cited from earlier work

Row | SMILES | MIC [1] [µg/mL] | MIC [2] [µg/mL] | MIC [3] [µg/mL] | MIC [4] [µg/mL] | MIC [5] [µg/mL] | MIC [6] [µg/mL] | MIC [7] [µg/mL] | MIC [8] [µg/mL] | MIC [9] [µg/mL] | MIC [10] [µg/mL] | MIC (Escherichia coli K-12) [µg/mL] | MIC [11] [µg/mL] | MIC [12] [µg/mL] | MIC [13] [µg/mL] | MIC [14] [µg/mL] | activity against kanamycin-resistant strains [15] | inactivation by nucleotidyl-transferase (nucleotidyl-transferase)
1 | NC[C@@H]1CC[C@@H](N)[C@@H](O[C@H]2[C@H](O)[C@@H](O[C@H]3O[C@H](CO)[C@@H](O)[C@H](N)[C@H]3O)[C@H](N)C[C@@H]2N)O1 [DKB, 3',4'-dideoxykanamycin B] | 12.5 (≈ 27.7 µM) | 100 (≈ 221 µM) | > 100 | 25 (≈ 55.4 µM) | 25 (≈ 55.4 µM) | 3.12 (≈ 6.91 µM) | 1.56 (≈ 3.45 µM) | 3.12 (≈ 6.91 µM) | 3.12 (≈ 6.91 µM) | 1.56 (≈ 3.45 µM) | 1.56 (≈ 3.45 µM) | 3.12 (≈ 6.91 µM) | 3.12 (≈ 6.91 µM) | 3.12 (≈ 6.91 µM) | 1.56 (≈ 3.45 µM) | actually effective | inactivate
2 | NC[C@H]1O[C@H](O[C@H]2[C@H](O)[C@@H](O[C@H]3O[C@H](CO)[C@@H](O)[C@H](N)[C@H]3O)[C@H](N)C[C@@H]2N)[C@H](O)[C@@H](O)[C@@H]1O [Kanamycin, kanamycin] | > 100 | > 100 | 100 (≈ 206 µM) | 12.5 (≈ 25.8 µM) | 12.5 (≈ 25.8 µM) | > 100 | 1.56 (≈ 3.22 µM) | > 100 | > 100 | 1.56 (≈ 3.22 µM) | 0.78 (≈ 1.61 µM) | > 100 | 50 (≈ 103 µM) | > 100 | 3.12 (≈ 6.44 µM) | – | inactivate
